Read-outs that look alike come from different tables or passages of the source.
Columns and labels:
human 5-HT2A receptor = human 5-HT2A receptor (Homo sapiens (Human), UniProt P28223); test: Radioligand binding assay, [3H]-ketanserin, human 5-HT2A receptor
Procedure: (§1) HEK293 EBNA cells were transiently transfected with expression plasmids encoding for the human D2 or D3 or for the human 5-HT2A receptor, respectively. The cells were harvested 48 h post-transfection, washed three times with cold PBS and stored at −80° C. prior to use. The pellet was suspended in cold 50 mM Tris-HCl buffer comprising 10 mM EDTA (pH 7.4) and was homogenized with a Polytron (Kinematica AG, Basel, Switzerland) for 20-30 sec at 12.000 rpm. After centrifugation at 48.000×g for 30 min at 4° C., the pellet was resuspended in cold 10 mM Tris-HCl buffer comprising 0.1 mM EDTA (pH 7.4), homogenized, and centrifuged as above. This pellet was further resuspended in a smaller volume of ice cold 10 mM Tris-HCl buffer comprising 0.1 mM EDTA (pH 7.4) and homogenized with a Polytron for 20-30 sec at 12.000 rpm. The protein content of this homogenate was determined with the Bio-Rad (Bradford) Protein Assay (Biorad Laboratories GmbH, München, Germany) according to the instructions of the manufacturer using gamma globulin as the standard. This homogenate was stored at −80° C. in aliquots and thawed immediately prior to use.
(§2) Aliquots of membrane preparations were thawed at RT, resuspended in assay buffer (D2, D3: 50 mM Tris-HCl, 120 mM NaCl, 5 mM MgCl2, 1 mM EDTA, 5 mM KCl, 1.5 mM CaCl2, pH=7.4; 5-HT2A: 50 mM Tris-HCl, 10 mM MgCl2, 1 mM EGTA, pH=7.4), homogenized with a Polytron for 20-30 sec at 12.000 rpm and adjusted to a final concentration of approximately 7.5 μg protein/well (D2, D3) and 15 μg protein/well (5-HT2A), respectively.
(§3) The binding affinity (Ki) of the compounds was determined using radioligand binding. Membranes were incubated in a total volume of 200 μl with a fixed concentration of radioligand (final concentration approximately 0.7 nM [^3H]-spiperone for D2, 0.5 nM [^3H]-spiperone for D3, and 1.1 nM [^3H]-ketanserin for 5-HT2A) and ten concentrations of test compound in ranging between 10 μM-0.1 nM for 1 h at RT. […] The nonspecific binding was determined with equally composed reaction mixtures in the presence of 10 μM unlabelled spiperone. Per well 45 μl of Microscint 40 (Perkin Elmer, Schwerzenbach, Switzerland) was added, plates for sealed, shaken for 20 min and counted for 3 min on a Topcount Microplate Scintillation Counter (Can berra Packard SA, Zürich, Switzerland) with quenching correction.
(§4) The CPM value for each duplicate of a concentration of competing compound was averaged (y1), then the % specific binding was calculated according to the equation (((y1−non-specific)/(total binding−non-specific))×100). Graphs were plotted with the % specific binding using XLfit, a curve fitting program that iteratively plots the data using Levenberg-Marquardt algorithm. The single site competition analysis equation used was y=A+((B−A)/(1+((x/C)D))), where y is the % specific binding, A is the minimum y, B is the maximum y, C is the IC50, x is the log 10 of the concentration of the competing compound and D is the slope of the curve (the Hill Coefficient). […] The affinity constant (K) was calculated using the Cheng-Prusoff equation Ki=(IC50/1+([L]/Kd), where [L] is the concentration of radioligand and Kd is the dissociation constant of the radioligand at the receptor as determined by the saturation isotherm.

human D2 receptor = human D2 receptor (Homo sapiens (Human), UniProt P14416); test: Radioligand binding assay, [3H]-spiperone, human D2 receptor; conditions: membranes of HEK293 EBNA cells expressing human D2; 0.7 nM [3H]-spiperone
Sequence of human D2 receptor (P14416 whole entry): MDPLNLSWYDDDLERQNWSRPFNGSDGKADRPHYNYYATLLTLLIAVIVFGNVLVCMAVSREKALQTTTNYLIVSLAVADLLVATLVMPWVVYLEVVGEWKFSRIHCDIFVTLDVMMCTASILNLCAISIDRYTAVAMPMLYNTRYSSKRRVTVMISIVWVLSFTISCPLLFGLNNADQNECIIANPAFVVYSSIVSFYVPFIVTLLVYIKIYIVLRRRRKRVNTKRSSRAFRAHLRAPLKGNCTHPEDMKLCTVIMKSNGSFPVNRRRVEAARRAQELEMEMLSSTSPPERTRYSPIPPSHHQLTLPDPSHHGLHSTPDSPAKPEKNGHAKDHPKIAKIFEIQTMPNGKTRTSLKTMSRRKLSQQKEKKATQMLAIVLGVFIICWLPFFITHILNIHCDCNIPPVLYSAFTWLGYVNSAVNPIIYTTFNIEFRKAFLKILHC
Procedure: as §1, §2, §3
as §4, with “algorithm.” for “algorithm. The single site competition analysis equation used was y=A+((B−A)/(1+((x/C)D))), where y is the % specific binding, A is the minimum y, B is the maximum y, C is the IC50, x is the log 10 of the concentration of the competing compound and D is the slope of the curve (the Hill Coefficient).”

human D3 receptor = human D3 receptor (Homo sapiens (Human), UniProt P35462); test: Radioligand binding assay, [3H]-spiperone, human D3 receptor; conditions: membranes of HEK293 EBNA cells expressing human D3; 0.5 nM [3H]-spiperone
Sequence of human D3 receptor (P35462 whole entry): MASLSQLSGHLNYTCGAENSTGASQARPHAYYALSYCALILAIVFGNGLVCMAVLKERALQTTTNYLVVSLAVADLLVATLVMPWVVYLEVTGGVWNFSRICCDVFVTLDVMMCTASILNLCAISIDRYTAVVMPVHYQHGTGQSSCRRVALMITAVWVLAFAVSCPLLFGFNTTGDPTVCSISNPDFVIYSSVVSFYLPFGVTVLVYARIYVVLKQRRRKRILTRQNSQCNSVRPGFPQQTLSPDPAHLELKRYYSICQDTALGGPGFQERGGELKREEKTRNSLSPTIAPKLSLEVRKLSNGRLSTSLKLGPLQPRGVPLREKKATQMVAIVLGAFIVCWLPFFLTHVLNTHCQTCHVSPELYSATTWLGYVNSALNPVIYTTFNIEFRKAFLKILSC
Procedure: as §1, §2, §3, §4

[1] = membranes of HEK293 EBNA cells expressing human 5-HT2A, 1.1 nM [3H]-ketanserin

Sequence of human 5-HT2A receptor (P28223 whole entry): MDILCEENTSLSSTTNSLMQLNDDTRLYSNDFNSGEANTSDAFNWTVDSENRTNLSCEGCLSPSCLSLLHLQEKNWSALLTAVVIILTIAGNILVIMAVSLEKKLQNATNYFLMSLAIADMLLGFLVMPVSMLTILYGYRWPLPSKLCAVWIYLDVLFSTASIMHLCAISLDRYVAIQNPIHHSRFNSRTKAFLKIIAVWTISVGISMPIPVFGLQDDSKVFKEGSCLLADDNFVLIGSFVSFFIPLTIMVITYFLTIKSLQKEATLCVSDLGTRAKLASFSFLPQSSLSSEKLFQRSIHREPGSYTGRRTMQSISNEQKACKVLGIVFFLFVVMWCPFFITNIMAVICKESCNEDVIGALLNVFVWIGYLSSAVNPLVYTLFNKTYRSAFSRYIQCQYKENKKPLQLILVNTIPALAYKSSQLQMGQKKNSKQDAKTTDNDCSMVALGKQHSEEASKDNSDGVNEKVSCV

Row | Structure (SMILES) | Ki (human 5-HT2A receptor; [1]) [µM] | Ki (human D2 receptor) [µM] | Ki (human D3 receptor) [µM] | Ki (human 5-HT2A receptor) [µM]
1 | COCCC(=O)N[C@H]1CC[C@H](CCN2CCN(c3nccc4occc34)CC2)CC1 [Example 5, N-{trans-4-[2-(4-Furo[3,2-c]pyridin-4-yl-piperazin-1-yl)-ethyl]-cyclohexyl}-3-methoxy-propionamide] | 0.0081 | 1.35 | 0.024 | –
2 | O=C(C[C@H]1CC[C@H](O)CC1)N[C@H]1CC[C@H](CCN2CCN(c3nccc4occc34)CC2)CC1 [Example 3, N-{trans-4-[2-(4-Furo[3,2-c]pyridin-4-yl-piperazin-1-yl)-ethyl]-cyclohexyl}-2-(trans-4-hydroxy-cyclohexyl)-acetamide] | – | 1.54 | 0.0546 | 0.0088
3 | O=C(CCO)N[C@H]1CC[C@H](CCN2CCN(c3nccc4occc34)CC2)CC1 [Example 6, N-{trans-4-[2-(4-Furo[3,2-c]pyridin-4-yl-piperazin-1-yl)-ethyl]-cyclohexyl}-3-hydroxy-propionamide] | 0.0103 | 0.959 | 0.0199 | –
4 | CO[C@H]1CC[C@H](CC(=O)N[C@H]2CC[C@H](CCN3CCN(c4nccc5sccc45)CC3)CC2)CC1 [Example 20, 2-(trans-4-Methoxy-cyclohexyl)-N-{trans-4-[2-(4-thieno[3,2-c]pyridin-4-yl-piperazin-1-yl)-ethyl]-cyclohexyl}-acetamide] | 0.0025 | 0.302 | 0.003 | –
5 | CO[C@@H]1CC[C@@H](CC(=O)N[C@H]2CC[C@H](CCN3CCN(c4nccc5occc45)CC3)CC2)C1 (racemic) [Example 2, N-{trans-4-[2-(4-Furo[3,2-c]pyridin-4-yl-piperazin-1-yl)-ethyl]-cyclohexyl}-2-(trans-3-methoxy-cyclopentyl)-acetamide] | 0.0064 | 0.802 | 0.0288 | –
6 | O=C(CO)N[C@H]1CC[C@H](CCN2CCN(c3nccc4occc34)CC2)CC1 [Example 7, N-{trans-4-[2-(4-Furo[3,2-c]pyridin-4-yl-piperazin-1-yl)-ethyl]-cyclohexyl}-2-hydroxy-acetamide] | 0.0056 | 1.36 | 0.043 | –
7 | COCC(=O)N[C@H]1CC[C@H](CCN2CCN(c3nccc4occc34)CC2)CC1 [Example 8, N-{trans-4-[2-(4-Furo[3,2-c]pyridin-4-yl-piperazin-1-yl)-ethyl]-cyclohexyl}-2-methoxy-acetamide] | 0.0044 | 1.16 | 0.0772 | –
8 | O=C(C[C@H]1CC[C@H](O)CC1)N[C@H]1CC[C@H](CCN2CCN(c3nccc4sccc34)CC2)CC1 [Example 28, 2-(trans-4-Hydroxy-cyclohexyl)-N-{trans-4-[2-(4-thieno[3,2-c]pyridin-4-yl-piperazin-1-yl)-ethyl]-cyclohexyl}-acetamide] | 0.004 | 0.392 | 0.006 | –
9 | O=C(CC1CCOCC1)N[C@H]1CC[C@H](CCN2CCN(c3nccc4sccc34)CC2)CC1 [Example 23, 2-(Tetrahydro-pyran-4-yl)-N-{trans-4-[2-(4-thieno[3,2-c]pyridin-4-yl-piperazin-1-yl)-ethyl]-cyclohexyl}-acetamide] | 0.003 | 0.144 | 0.0027 | –
10 | CCS(=O)(=O)N[C@H]1CC[C@H](CCN2CCN(c3nccc4occc34)CC2)CC1 [Example 16, Ethanesulfonic acid {trans-4-[2-(4-furo[3,2-c]pyridin-4-yl-piperazin-1-yl)-ethyl]-cyclohexyl}-amide] | 0.0085 | 0.78 | 0.0306 | –
11 | CCOCC(=O)N[C@H]1CC[C@H](CCN2CCN(c3nccc4occc34)CC2)CC1 [Example 12, 2-Ethoxy-N-{trans-4-[2-(4-furo[3,2-c]pyridin-4-yl-piperazin-1-yl)-ethyl]-cyclohexyl}-acetamide] | 0.0074 | 0.996 | 0.15 | –
12 | CO[C@H]1CC[C@H](CC(=O)N[C@H]2CC[C@H](CCN3CCN(c4nccc5sccc45)CC3)CC2)C1 [Example 26, 2-((1S,3S)-3-Methoxy-cyclopentyl)-N-{trans-4-[2-(4-thieno[3,2-c]pyridin-4-yl-piperazin-1-yl)-ethyl]-cyclohexyl}-acetamide] | 0.0043 | 0.246 | 0.003 | –
13 | CCS(=O)(=O)N[C@H]1CC[C@H](CCN2CCN(c3nccc4sccc34)CC2)CC1 [Example 31, Ethanesulfonic acid {trans-4-[2-(4-thieno[3,2-c]pyridin-4-yl-piperazin-1-yl)-ethyl]-cyclohexyl}-amide] | 0.0029 | 0.217 | 0.0043 | –
14 | O=C(N[C@H]1CC[C@H](CCN2CCN(c3nccc4sccc34)CC2)CC1)C1CCOCC1 [Example 24, Tetrahydro-pyran-4-carboxylic acid {trans-4-[2-(4-thieno[3,2-c]pyridin-4-yl-piperazin-1-yl)-ethyl]-cyclohexyl}-amide] | – | 0.992 | 0.0036 | 0.0017
15 | CC(=O)N[C@H]1CC[C@H](CCN2CCN(c3nccc4occc34)CC2)CC1 [Example 1, N-{trans-4-[2-(4-Furo[3,2-c]pyridin-4-yl-piperazin-1-yl)-ethyl]-cyclohexyl}-acetamide] | – | 0.486 | 0.0183 | 0.0091
16 | COCC(=O)N[C@H]1CC[C@H](CCN2CCN(c3nccc4sccc34)CC2)CC1 [Example 22, 2-Methoxy-N-{trans-4-[2-(4-thieno[3,2-c]pyridin-4-yl-piperazin-1-yl)-ethyl]-cyclohexyl}-acetamide] | 0.0022 | 0.22 | 0.0032 | –
17 | CO[C@@H]1CC[C@@H](CC(=O)N[C@H]2CC[C@H](CCN3CCN(c4nccc5sccc45)CC3)CC2)C1 [Example 25, 2-((1R,3R)-3-Methoxy-cyclopentyl)-N-{trans-4-[2-(4-thieno[3,2-c]pyridin-4-yl-piperazin-1-yl)-ethyl]-cyclohexyl}-acetamide] | 0.0049 | 0.234 | 0.0027 | –
18 | CO[C@H]1CC[C@H](CC(=O)N[C@H]2CC[C@H](CCN3CCN(c4nccc5occc45)CC3)CC2)CC1 [Example 9, N-{trans-4-[2-(4-Furo[3,2-c]pyridin-4-yl-piperazin-1-yl)-ethyl]-cyclohexyl}-2-(trans-4-methoxy-cyclohexyl)-acetamide] | 0.0056 | 1.46 | 0.0327 | –
19 | O=C(N[C@H]1CC[C@H](CCN2CCN(c3nccc4occc34)CC2)CC1)c1ccnc2ccccc12 [Example 29, Quinoline-4-carboxylic acid {trans-4-[2-(4-furo[3,2-c]pyridin-4-yl-piperazin-1-yl)-ethyl]-cyclohexyl}-amide] | 0.0053 | 0.461 | 0.0232 | –
20 | CS(=O)(=O)N[C@H]1CC[C@H](CCN2CCN(c3nccc4sccc34)CC2)CC1 [Example 30, N-{trans-4-[2-(4-Thieno[3,2-c]pyridin-4-yl-piperazin-1-yl)-ethyl]-cyclohexyl}-methanesulfonamide] | 0.0029 | 0.265 | 0.0043 | –
21 | COCCC(=O)N[C@H]1CC[C@H](CCN2CCN(c3nccc4sccc34)CC2)CC1 [Example 19, 3-Methoxy-N-{trans-4-[2-(4-thieno[3,2-c]pyridin-4-yl-piperazin-1-yl)-ethyl]-cyclohexyl}-propionamide] | – | 0.305 | 0.0019 | 0.0035
